For orientation: MIC means the smallest concentration in the dilution series that meets the test's criterion for growth inhibition. The low end stands for greater potency, the high end for weaker potency. As usually defined, the MBC is the lowest tested concentration that kills the bacteria rather than only halting them. A higher MBC goes with less potent killing.

The assay has as its system H. pylori (strain 3339). Description: Broth dilution antimicrobial test, H. pylori strain 3339. Format: cell-based, Helicobacter pylori. The settings on record: compounds from subfractions 6 and 10. (In general: In broth dilution the organism is exposed to a series of concentrations in liquid medium.)

≈ marks a conversion by molar mass, not a printed value.

With `CCCCC1OC(=O)c2ccccc21` (stereo not shown) [3-n Butyl phthalide, 3-n-butyl phthalide], the lowest concentration to inhibit growth (MIC) was 15.6 mg/L (≈ 82.1 µM).

For the compound `CCCCC/C=C/C/C=C/CCCCCCCC(=O)O` [Linoleic acid, cis, cis - 9,12- Octadecadienoic acid], the MBC was above 125 mg/L and the minimum inhibitory concentration (MIC) was found to be 62.5 mg/L (≈ 223 µM).

In the case of `CCCCC1OC(=O)C2=C1CCC=C2` (stereo not shown) [sedanenolide, 3-n-butyl 4,5-dihydrolphthalide], the MBC is 62.5 mg/L (≈ 325 µM) and the MIC was found to be 31.2 mg/L (≈ 163 µM).

In the case of α and β-Eudesmol, the MBC was determined as 125 mg/L and 15.6 mg/L was the least that counted as inhibitory (MIC).

Values taken from patent US20060013906A1, “Anti-helicobacter activity of celery seed extract” (priority 2002, published 2006).
